Data as given in patent EP2845863A1, “Mathanococcus jannaschii protease and its use” (Consejo Superior de Investigaciones Cientificas (CSIC), priority 2013, dated 2015).
Read-outs that look alike come from different tables or passages of the source. Values belong to the compound of their own block, whether it stands above or below them. Non-standard residues stand in square brackets, D forms with d. Residues, ends and D or L forms follow the SMILES beside them. *: point of attachment. Sta = CC(C)C[C@H](N)[C@@H](O)CC(=O)O; Isovaleryl = CC(C)CC(=O)*

Molecular target: T1, Methanococcus jannaschii selecase, wild type, SEQ ID No: 1 (Methanocaldococcus jannaschii, UniProt Q58610)
T1 sequence (Q58610 1-110): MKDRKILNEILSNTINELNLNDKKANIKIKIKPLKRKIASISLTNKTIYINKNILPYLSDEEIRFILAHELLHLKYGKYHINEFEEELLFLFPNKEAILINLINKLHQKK
Test: Inhibition assay with fluorogenic substrate Abz-E-L-A-Y-F-Y-P-E-K(dnp)
Type: biochemical
Details: for activity at 100 µM: inhibitor 0.1 mM
Procedure: Proteolytic activities were assayed at 37°C in buffer E (50 mM MES, 150 mM NaCl, pH 5.5), buffer F (50 mM HEPES, 150 mM NaCl, pH 7.5) or buffer G (50 mM CHES, 150 mM NaCl, pH 9.5) at a final protein concentration of 50 µg/ml unless otherwise stated.
For inhibition assays, selecase (at 2 µM in buffer F) was incubated for 30 min with different classes of protease inhibitors and the remaining proteolytic activity was then measured using the fluorogenic substrate Ab[…](dnp) at 37°C. Metal substitution assays were performed by removing the pre-existing metal upon purification through dialysis against 10 mM and 1 mM 1,10-phenanthroline and subsequent dialysis against 1 mM and 10 µM chloride or sulfate salt of a set of divalent metals, similarly as described above to obtain fully active protein. Metals tested were zinc, cobalt, magnesium, manganese, calcium, cadmium, copper, and nickel.

[1] = inhibitor 1 mM, selecase 2 µM in buffer F (50 mM HEPES, 150 mM NaCl, pH 7.5), incubated 30 min with inhibitor, remaining activity at 37°C, no inhibitor = 100, mean of three, SD within ±5, read-out: Relative activity (%)
[2] = selecase 2 µM in buffer F (50 mM HEPES, 150 mM NaCl, pH 7.5), incubated 30 min with inhibitor, remaining activity at 37°C, no inhibitor = 100, mean of three, SD within ±5, read-out: Relative activity (%)
[3] = inhibitor 1 mM, selecase 2 µM in buffer F (50 mM HEPES, 150 mM NaCl, pH 7.5), incubated 30 min with inhibitor, remaining activity at 37°C, no inhibitor = 100, mean of three, SD within ±5

SMILES: N=C(N)c1ccccc1 [Benzamidine]
- activity at 1000 µM [1]: 66%

- activity at 100 µM [2]: 98%
SMILES: CC(C)C[C@H](NC(=O)[C@H]1O[C@@H]1C(=O)O)C(=O)NCCCCNC(=N)N [E-64]

SMILES: O=C(O)CN(CCN(CC(=O)O)CC(=O)O)CC(=O)O [EDTA]
- activity at 1000 µM (pH 7.5, read-out: Relative activity (%)): 0%

SMILES: O=S(=O)(F)Cc1ccccc1 [PMSF]
- Relative activity (%) [3]: 82%

SMILES: NCCc1ccc(S(=O)(=O)F)cc1 [Pefabloc]
- Relative activity (%) [3]: 78%

SMILES: CC(C)CC(=O)N[C@H](C(=O)N[C@H](C(=O)N[C@@H](CC(C)C)[C@@H](O)CC(=O)N[C@@H](C)C(=O)N[C@@H](CC(C)C)[C@@H](O)CC(=O)O)C(C)C)C(C)C [Pepstatin A] (Isovaleryl-VV[Sta]A[Sta]-OH)
- activity at 100 µM [2]: 75%

SMILES: NC(=O)CI [lodoacetamide]
- activity at 1000 µM [1]: 79%
